No end group written: not given here.
Tested on: IgG of sera from MS patients and healthy individuals
Assay: ELISA of biotinylated synthetic peptides, IgG response of individual human sera
Type: binding
Conditions: for MEAN / OD 1 / OD 2 / OD 3 / BASELINE (mark: above cut-off): 1/100
Procedure: Depending on the information obtained from the preceding examples, the hexapeptides SEQ ID NO: 3 and SEQ ID NO: 4 were synthesized and biotinylated according to the method described in Patent Application No. EP 93420183 with the following modifications: the peptide still bound to the resin is selectively deprotected at the N-terminal position. After overnight incubation with the biotin-NHS at 50% in DMF, the peptide is then cleaved from the resin and treated as described in the patent cited above.
The wells of a Maxisorb (trade name, Nunc) microtiter plate are saturated with 100 μl of a 50 mM NaHCO3 solution, pH 9.6, containing 10 μg/ml of streptavidin for 2 hours at 37° C. The plate is washed with TBS/0.05% Tween 20 buffer. The wells are then saturated with 250 μl of wash buffer supplemented with 10% goat serum for 1 hour at 37° C. and then washed as described above.
The sera to be analyzed are diluted 1/100 in saturation buffer, supplemented with 0.05% Tween 20 and incubated for 2 hours at 37° C. After washing, a solution of peroxidase-labeled anti-human immunoglobulin G goat antibody conjugate (marketed by Jackson Immuno Research Laboratories Inc.) is added at the dilution of 1/10,000 and the plates are incubated for 1 hour at 37° C. After washes, the ortho-phenylenediamine (OPD) substrate is added and the reaction is stopped after 10 minutes by adding 50 μl of H2SO4. The optical density is read at 492 nm.
In a test carried out with 1/100 dilutions of 11 English sera from MS patients at the remission stage and 4 negative English sera, the peptides SEQ ID NOs: 3 and 4 are recognized by 4 sera out of 11 which give a positive IgG signal compared with the negative serum which gave the highest signal.

[1] = IgG, serum 33/6 (MS+, remission)
[2] = IgG, serum 33/8 (MS+, remission)
[3] = IgG, serum 33/18 (MS+, remission)
[4] = IgG, serum No. 12 (MS−, healthy)
[5] = IgG, serum No. 13 (MS−, healthy)
[6] = IgG, serum No. 14 (MS−, healthy)
[7] = IgG, serum No. 15 (MS−, healthy)
[8] = IgG, serum QS 2 (MS+, remission)
[9] = IgG, serum QS 3 (MS+, remission)
[10] = IgG, serum QS 4 (MS+, remission)
[11] = IgG, serum QS 6 (MS+, remission)
[12] = IgG, serum QS 7 (MS+, remission)
[13] = IgG, serum QS 8 (MS+, remission)
[14] = IgG, serum QS 11 (MS+, remission)
[15] = IgG, serum QS 12 (MS+, remission)

LQQAVF [SEQ ID NO: 3]
MS sera giving a positive IgG signal compared with the negative serum which gave the highest signal (1/100 dilutions of 11 sera from MS patients at the remission stage, 4 negative sera): 4 sera out of 11
MS sera recognizing the peptide significantly, cut-off mean of negative sera plus 3 times the standard deviation (IgG, 1/100 dilutions of 11 MS remission sera, 4 negative sera): 3 sera out of 11
BASELINE (IgG, cut-off, mean of negative sera plus 3 times the standard deviation): 815 optical density (×1000)
MEAN [1]: 587 optical density (×1000)
OD 1 [1]: 535 optical density (×1000)
OD 2 [1]: 599 optical density (×1000)
OD 3 [1]: 626 optical density (×1000)
BASELINE (mark: above cut-off) [2]: X (the mean of the values obtained with the negative sera is calculated and 3 times the standard deviation is added in order to determine a cut-off)
MEAN [2]: 1067 optical density (×1000)
OD 1 [2]: 990 optical density (×1000)
OD 2 [2]: 941 optical density (×1000)
OD 3 [2]: 1271 optical density (×1000)
MEAN [3]: 395 optical density (×1000)
OD 1 [3]: 601 optical density (×1000)
OD 2 [3]: 339 optical density (×1000)
OD 3 [3]: 246 optical density (×1000)
MEAN [4]: 639 optical density (×1000)
OD 1 [4]: 550 optical density (×1000)
OD 2 [4]: 640 optical density (×1000)
OD 3 [4]: 726 optical density (×1000)
MEAN [5]: 377 optical density (×1000)
OD 1 [5]: 366 optical density (×1000)
OD 2 [5]: 369 optical density (×1000)
OD 3 [5]: 407 optical density (×1000)
MEAN [6]: 307 optical density (×1000)
OD 1 [6]: 367 optical density (×1000)
OD 2 [6]: 285 optical density (×1000)
OD 3 [6]: 270 optical density (×1000)
MEAN [7]: 452 optical density (×1000)
OD 1 [7]: 439 optical density (×1000)
OD 2 [7]: 496 optical density (×1000)
OD 3 [7]: 422 optical density (×1000)
MEAN [8]: 309 optical density (×1000)
OD 1 [8]: 294 optical density (×1000)
OD 2 [8]: 339 optical density (×1000)
OD 3 [8]: 293 optical density (×1000)
MEAN [9]: 727 optical density (×1000)
OD 1 [9]: 618 optical density (×1000)
OD 2 [9]: 784 optical density (×1000)
OD 3 [9]: 779 optical density (×1000)
BASELINE (mark: above cut-off) [10]: X (the mean of the values obtained with the negative sera is calculated and 3 times the standard deviation is added in order to determine a cut-off)
MEAN [10]: 1346 optical density (×1000)
OD 1 [10]: 1161 optical density (×1000)
OD 2 [10]: 1293 optical density (×1000)
OD 3 [10]: 1583 optical density (×1000)
MEAN [11]: 325 optical density (×1000)
OD 1 [11]: 306 optical density (×1000)
OD 2 [11]: 263 optical density (×1000)
OD 3 [11]: 407 optical density (×1000)
BASELINE (mark: above cut-off) [12]: X (the mean of the values obtained with the negative sera is calculated and 3 times the standard deviation is added in order to determine a cut-off)
MEAN [12]: 1355 optical density (×1000)
OD 1 [12]: 1307 optical density (×1000)
OD 2 [12]: 1298 optical density (×1000)
OD 3 [12]: 1461 optical density (×1000)
MEAN [13]: 615 optical density (×1000)
OD 1 [13]: 664 optical density (×1000)
OD 2 [13]: 635 optical density (×1000)
OD 3 [13]: 545 optical density (×1000)
MEAN [14]: 235 optical density (×1000)
OD 1 [14]: 429 optical density (×1000)
OD 2 [14]: 169 optical density (×1000)
OD 3 [14]: 108 optical density (×1000)
MEAN [15]: 398 optical density (×1000)
OD 1 [15]: 405 optical density (×1000)
OD 2 [15]: 472 optical density (×1000)
OD 3 [15]: 316 optical density (×1000)

— patent publication US6555091B1, “Polypeptide capable of reacting with antibodies of patients suffering from multiple sclerosis and uses” (Bio Merieux, priority 1997, dated 2003)
